From ChEMBL document CHEMBL3832048, “DailyMed|setid=020d34eb-9560-4218-9d87-dfdeff705c3a | BICALUTAMIDE - bicalutamide tablet, film coated|Physicians Total Care, Inc”

Columns and labels:
[1] = (§1) Pharmacokinetic parameters for Bicalutamide following single oral administration of Bicalutamide tablets to 30 healthy male subjects and 40 patients with prostrate cancer.; type: ADME, organism-based; parameters: route oral; details: human, in vivo, dosed compound id 25, dosed compound name BICALUTAMIDE, gender male, regimen Single dose, tissue Plasma
[2] = system: Homo sapiens; assay: as §1; type: ADME, organism-based; parameters: route oral; details: in vivo, po, dosed compound id 25, dosed compound name BICALUTAMIDE, gender male, regimen Single dose, tissue Plasma

## CC(O)(CS(=O)(=O)c1ccc(F)cc1)C(=O)Nc1ccc(C#N)c(C(F)(F)F)c1 (stereo not given) [BICALUTAMIDE]
[1]; po
  Cmax: 768 ng/mL
[1]; route oral
  CL/F: 5.33 mL/min
  Tmax: 31.3 h
  half-life: 139 h
[2]
  Css: 8939 ng/mL
